From PubChem BioAssay AID1919008 (Molecular Pharmacology Branch, DTP, NCI, 2023)

System: DMS-114 complex spheroids with HUVEC/MSC, growth % test/control
Experiment: Anticancer human tumor DMS-114 cell line growth inhibition [AhR];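 note: spheroids exposed to agents for 7 days before readout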;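 for viability, T/C: 100% = DMSO vehicle control wells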
Settings: for IC50: curve of first compound; for viability, T/C: stronger effect = lower value
Procedure, shortened: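 Spheroids combined tumor cells with HUVEC endothelial cells and human MSCs as stroma. AhR antagonists were paired with standard or investigational drugs, each dosed in half-log steps down from near clinical Cmax, or from 10 microM where Cmax was unknown.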

[1] = second compound 0.1 µM, first compound 0.0316 µM
[2] = second compound 0.1 µM, first compound 0.1 µM
[3] = second compound 0.1 µM, first compound 0.316 µM
[4] = second compound 0.1 µM, first compound 1 µM
[5] = second compound 0.316 µM, first compound 0.0316 µM
[6] = second compound 0.316 µM, first compound 0.1 µM
[7] = second compound 0.316 µM, first compound 0.316 µM
[8] = second compound 0.316 µM, first compound 1 µM
[9] = second compound 1 µM, first compound 0.0316 µM
[10] = second compound 1 µM, first compound 0.1 µM
[11] = second compound 1 µM, first compound 0.316 µM
[12] = second compound 1 µM, first compound 1 µM
[13] = second compound 3.16 µM, first compound 0.0316 µM
[14] = second compound 3.16 µM, first compound 0.1 µM
[15] = second compound 3.16 µM, first compound 0.316 µM
[16] = second compound 3.16 µM, first compound 1 µM
[17] = second compound 10 µM, first compound 0.0316 µM
[18] = second compound 10 µM, first compound 0.1 µM
[19] = second compound 10 µM, first compound 0.316 µM
[20] = second compound 10 µM, first compound 1 µM

Row | SMILES | IC50 (second compound 0.1 µM) [nM] | IC50 (second compound 0.316 µM) [nM] | IC50 (second compound 1 µM) [nM] | IC50 (second compound 3.16 µM) [nM] | IC50 (second compound 10 µM) [nM] | viability, T/C [1] [%] | viability, T/C [2] [%] | viability, T/C [3] [%] | viability, T/C [4] [%] | viability, T/C [5] [%] | viability, T/C [6] [%] | viability, T/C [7] [%] | viability, T/C [8] [%] | viability, T/C [9] [%] | viability, T/C [10] [%] | viability, T/C [11] [%] | viability, T/C [12] [%] | viability, T/C [13] [%] | viability, T/C [14] [%] | viability, T/C [15] [%] | also measured
1 | CC(C)c1c(-c2ccccc2)nc2c(C#N)c[nH]n2c1=O + Cc1ccccc1N=Nc1ccc(NC(=O)c2ccnn2C)c(C)c1 | > 10000 | > 10000 | > 10000 | > 10000 | > 10000 | 104 | 108 | 105 | 103 | 95.5 | 97.7 | 98.9 | 94.3 | 95.3 | 96.8 | 102 | 103 | 96 | 95.8 | 93 | viability, T/C (second compound 0.1 µM, first compound 3.16 µM): 113%; viability, T/C (second compound 0.1 µM, first compound 10 µM): 95.9%; viability, T/C (second compound 0.316 µM, first compound 3.16 µM): 95.9%; viability, T/C (second compound 0.316 µM, first compound 10 µM): 101%; viability, T/C (second compound 1 µM, first compound 3.16 µM): 95.3%; viability, T/C (second compound 1 µM, first compound 10 µM): 99.2%; viability, T/C [16]: 96.3%; viability, T/C (second compound 3.16 µM, first compound 3.16 µM): 107%; viability, T/C (second compound 3.16 µM, first compound 10 µM): 102%; viability, T/C [17]: 98.3%; viability, T/C [18]: 96.9%; viability, T/C [19]: 95.6%; viability, T/C [20]: 90.5%; viability, T/C (second compound 10 µM, first compound 3.16 µM): 94.7%; viability, T/C (second compound 10 µM, first compound 10 µM): 88.8%
2 | CC1COCCN1c1cc(-c2ccnn2C)c2ccnc(-c3ccn[nH]3)c2n1 (stereo not given) + Cc1ccccc1N=Nc1ccc(NC(=O)c2ccnn2C)c(C)c1 | 620 | 500 | 475 | 495 | 538 | 98.1 | 85.8 | 68.6 | 37.2 | 95.2 | 83.8 | 58.7 | 37.2 | 101 | 84.8 | 57.4 | 37.3 | 92.1 | 81.5 | 58 | viability, T/C (second compound 0.1 µM, first compound 0.00316 µM): 110%; viability, T/C (second compound 0.1 µM, first compound 0.01 µM): 96.3%; viability, T/C (second compound 0.316 µM, first compound 0.00316 µM): 94.3%; viability, T/C (second compound 0.316 µM, first compound 0.01 µM): 106%; viability, T/C (second compound 1 µM, first compound 0.00316 µM): 97.8%; viability, T/C (second compound 1 µM, first compound 0.01 µM): 98.2%; viability, T/C (second compound 3.16 µM, first compound 0.00316 µM): 99.7%; viability, T/C (second compound 3.16 µM, first compound 0.01 µM): 101%; viability, T/C [16]: 37%; viability, T/C (second compound 10 µM, first compound 0.00316 µM): 89.9%; viability, T/C (second compound 10 µM, first compound 0.01 µM): 89.2%; viability, T/C [17]: 89.1%; viability, T/C [18]: 66.2%; viability, T/C [19]: 60.5%; viability, T/C [20]: 41%
